Measurements taken from BigSolDB 2.1.

O=C(Nc1c(Cl)cncc1Cl)c1ccc(OC(F)F)c(OCC2CC2)c1
solubility (mole fraction)
Conditions | 278.2 K | 283.2 K | 288.2 K | 293.2 K | 298.2 K | 303.2 K | 308.2 K | 313.2 K | 318.2 K | 323.2 K
in 2-butanone | 0.000102 | 0.00013 | 0.000165 | 0.000204 | 0.000264 | 0.000351 | 0.000448 | 0.000586 | 0.00081 | 0.00118
in 2-pentanone | 7.4e-05 | 9.8e-05 | 0.000114 | 0.00016 | 0.000219 | 0.000311 | 0.000402 | 0.000551 | 0.000756 | 0.00101
in DMF | 4e-06 | 6e-06 | 8e-06 | 1.3e-05 | 1.9e-05 | 3.1e-05 | 4.3e-05 | 6.1e-05 | 8.6e-05 | 0.000119
in DMSO | 3.3e-05 | 4.2e-05 | 6.3e-05 | 9e-05 | 0.000132 | 0.000171 | 0.000236 | 0.00033 | 0.000457 | 0.000629
in ethanol | 6.5e-05 | 8.8e-05 | 0.000106 | 0.00015 | 0.000208 | 0.000297 | 0.000387 | 0.000533 | 0.000734 | 0.000989
in n-butanol | 4.5e-05 | 6.2e-05 | 7.8e-05 | 0.000112 | 0.000156 | 0.000226 | 0.000296 | 0.000411 | 0.00057 | 0.000782
in n-propanol | 4.9e-05 | 7.6e-05 | 9.4e-05 | 0.000131 | 0.000175 | 0.000244 | 0.000328 | 0.000455 | 0.000625 | 0.000868

Cc1nnc(C(C)C)n1C1C[C@H]2CC[C@@H](C1)N2CC[C@H](NC(=O)C1CCC(F)(F)CC1)c1ccccc1 (stereo not given in full)
solubility (mole fraction)
Conditions | 278.2 K | 283.2 K | 288.2 K | 293.2 K | 298.2 K | 303.2 K | 308.2 K | 313.2 K | 318.2 K | 323.2 K
in 2-butanone | 0.000179 | 0.000262 | 0.000349 | 0.000491 | 0.000715 | 0.00102 | 0.00137 | 0.00193 | 0.00257 | 0.00351
in 2-pentanone | 0.000152 | 0.000224 | 0.000296 | 0.000418 | 0.000607 | 0.00087 | 0.00119 | 0.00168 | 0.00229 | 0.00316
in DMF | 3.5e-05 | 5.6e-05 | 7.6e-05 | 0.000112 | 0.000168 | 0.000244 | 0.000341 | 0.000507 | 0.000689 | 0.00101
in DMSO | 1.4e-05 | 2.4e-05 | 3.7e-05 | 5.6e-05 | 8.4e-05 | 0.000128 | 0.000173 | 0.000263 | 0.000358 | 0.00053
in ethanol | 0.000281 | 0.000404 | 0.00052 | 0.000716 | 0.00102 | 0.00144 | 0.00189 | 0.00263 | 0.00344 | 0.00461
in n-butanol | 0.0002 | 0.000293 | 0.000383 | 0.000533 | 0.000778 | 0.00112 | 0.0015 | 0.00212 | 0.00282 | 0.00387
in n-propanol | 0.00021 | 0.00031 | 0.00042 | 0.000609 | 0.00088 | 0.00124 | 0.00167 | 0.00235 | 0.00311 | 0.00421
in water | 6e-06 | 9e-06 | 1.2e-05 | 1.7e-05 | 2.5e-05 | 3.6e-05 | 4.8e-05 | 6.9e-05 | 9.2e-05 | 0.000129
